Assay results published in patent US9730445B2, “Herbicidal compositions comprising 4-amino-3-chloro-5-fluoro-6-(4-chloro-2-fluoro-3-methoxyphenyl) pyridine-2-carboxylic acid or a derivative thereof and fungicides” (DOW AGROSCIENCES LLC, priority 2013, dated 2017).

Key:
CYPES = assay: Postemergence foliar-applied weed control, direct-seeded rice (greenhouse); assay type: in vivo, Cyperus esculentus L. (yellow nutsedge); conditions: r45 ester 8 g ae/ha alone, r46-48 kasugamycin 17.5/35/70 g ai/ha alone, r49-51 ester 8 + 17.5/35/70
Protocol: (§1) Seeds or nutlets of the desired test plant species were planted in a soil matrix prepared by mixing aloam or sandy loam soil (e.g., 28.6 percent silt, 18.8 percent clay, and 52.6 percent sand, with a pH of about 5.8 and an organic matter content of about 1.8 percent) and calcareous grit in an 80 to 20 ratio. The soil matrix was contained in plastic pots with a volume of 1 quart and a surface area of 83.6 square centimeters (cm^2). […] The plants were grown for 8-22 days in a greenhouse with an approximate 14 hour (h) photoperiod which was maintained at about 29° C. during the day and 26° C. during the night. Nutrients (Peters Excel® 15-5-15 5-Ca 2-Mg and iron chelate) were applied in the irrigation solution as needed and water was added on a regular basis. Supplemental lighting was provided with overhead metal halide 1000-Watt lamps as necessary. The plants were employed for testing when they reached the first through fourth true leaf stage.
(§2) Treatments consisted of the acid or esters of 4-amino-3-chloro-5-fluoro-6-(4-chloro-2-fluoro-3-methoxy-phenyl)pyridine-2-carboxylic acid (Compound A), each formulated as an SC (suspension concentrate), and various fungicidal components alone and in combination. Forms of compound A were applied on an acid equivalent basis.
(§3) For treatments comprised of formulated compounds, measured amounts of compounds were placed individually in 25 mL glass vials and diluted in a volume of 1.25% volume per volume (v/v) Agri-Dex® crop oil concentrate to obtain 12× stock solutions. […] Application solutions were prepared by adding an appropriate amount of each stock solution (e.g., 1 mL) and diluted to the appropriate final concentrations with the addition of […] of an aqueous mixture of 1.25% (v/v) crop oil concentrate so that the final spray solutions contained 1.25+/−0.05% (v/v) crop oil concentrate.
(§4) For treatments comprised of technical compounds, weighed amounts can be placed individually in 25 mL glass vials and dissolved in a volume of 97:3 volume per volume (v/v) acetone/dimethyl sulfoxide (DMSO) to obtain 12× stock solutions. […] When technical materials are used, the concentrated stock solutions can be added to the spray solutions so that the final acetone and DMSO concentrations of the application solutions are 16.2% and 0.5%, respectively.
(§5) As required, additional water and/or 97:3 v/v acetone/DMSO was added to individual application solutions so that the final acetone and DMSO concentrations of the application solutions being compared were 8.1% and 0.25%, respectively
(§6) All stock solutions and applications solutions were visually inspected for compound compatibility prior to application. Spray solutions were applied to the plant material with an overhead Mandel track sprayer equipped with 8002E nozzles calibrated to deliver 187 L/ha over an application area of 0.503 square meters (m^2) at a spray height of 18 to 20 inches (46 to 50 cm) above average plant canopy height. Control plants were sprayed in the same manner with the solvent blank.
(§7) The treated plants and control plants were placed in a greenhouse as described above and watered by sub-irrigation to prevent wash-off of the test compounds. After approximately 3 weeks, the condition of the test plants as compared with that of the untreated plants was determined visually and scored on a scale of 0 to 100 percent where 0 corresponds to no injury or growth inhibition and 100 corresponds to complete kill. […]

CYPIR = assay: as above; assay type: in vivo, Cyperus iria L. (rice flatsedge); conditions: 21 DAA, r29-30 ester 8/16 g ae/ha alone, r31-33 kasugamycin 17.5/35/70 g ai/ha alone, r34-39 ester 8/16 at each of 17.5, 35, 70
Protocol: as §1, §2, §3, §4, §5, §6
(§8) The treated plants and control plants were placed in a greenhouse as described above and watered by sub-irrigation to prevent wash-off of the test compounds. After approximately 3 weeks, the condition of the test plants as compared with that of the untreated plants was determined visually and scored on a scale of 0 to 100 percent where 0 corresponds to no injury or growth inhibition and 100 corresponds to complete kill.
(§9) Colby's equation was used to determine the herbicidal effects expected from the mixtures (Colby, S. R. Calculation of the synergistic and antagonistic response of herbicide combinations. Weeds 1967, 15, 20-22.).
(§10) The following equation was used to calculate the expected activity of mixtures containing two active ingredients, A and B: Expected=A+B−(A×B/100)

DIGSA = assay: as above; assay type: in vivo, Digitaria sanguinalis (L.) Scop. (large crabgrass)
From the text: Seeds or nutlets of the desired test plant species were planted in a soil matrix prepared by mixing aloam or sandy loam soil (e.g., 28.6 percent silt, 18.8 percent clay, and 52.6 percent sand, with a pH of about 5.8 and an organic matter content of about 1.8 percent) and calcareous grit in an 80 to 20 ratio. The soil matrix was contained in plastic pots with a volume of 1 quart and a surface area of 83.6 square centimeters (cm^2). When required to ensure good germination and healthy plants, a fungicide treatment and/or other chemical or physical treatment was applied. The plants were grown for 8-22 days in a greenhouse with an approximate 14 hour (h) photoperiod which was maintained at about 29° C. during the day and 26° C. during the night. Nutrients (Peters Excel® 15-5-15 5-Ca 2-Mg and iron chelate) were applied in the irrigation solution as needed and water was added on a regular basis. Supplemental lighting was provided with overhead metal halide 1000-Watt lamps as necessary. The plants were employed for testing when they reached the first through fourth true leaf stage.
as §2
Treatment requirements were calculated based upon the rates being tested, the concentration of active ingredient or acid equivalent in the formulation and a 12 milliliter (mL) application volume at a rate of 187 liters per hectare (L/ha).
as §3, §4, §5, §6, §7

ECHOR = assay: as above; assay type: in vivo, Echinochloa oryzoides (Ard.) Fritsch (early watergrass)
Protocol: as §1, §2
For treatments comprised of formulated compounds, measured amounts of compounds were placed individually in 25 mL glass vials and diluted in a volume of 1.25% volume per volume (v/v) Agri-Dex® crop oil concentrate to obtain 12× stock solutions. […]
as §7

IPOHE = assay: as above; assay type: in vivo, Ipomoea hederacea (L.) Jacq. (ivyleaf morningglory)
Protocol: as §1, §2, §3, §4, §5, §6, §8, §9, §10

LEFCH [1] = assay: as above; assay type: in vivo, Leptochloa chinensis (L.) Nees (Chinese sprangletop); conditions: 21 DAA
Protocol: as §1, §2, §3, §4, §5, §6, §8, §9, §10

CYPRO = assay: In-water applied weed control, transplanted paddy rice (greenhouse); assay type: in vivo, Cyperus rotundus L. (purple nutsedge)
Protocol: (§11) Weed seeds or nutlets of the desired test plant species were planted in puddled soil (mud) prepared by mixing a shredded, non-sterilized mineral soil (50.5 percent silt, 25.5 percent clay, and 24 percent sand, with a pH of about 7.6 and an organic matter content of about 2.9 percent) and water at a 1:1 volumetric ratio. The prepared mud was dispensed in 365 mL aliquots into 16-ounce (oz.) non-perforated plastic pots with a surface area of 86.59 square centimeters (cm^2) leaving a headspace of 3 centimeters (cm) in each pot. Rice seeds were planted in Sun Gro MetroMix® 306 planting mixture, which typically has a pH of 6.0 to 6.8 and an organic matter content of about 30 percent, in plastic plug trays. Seedlings at the second or third leaf stage of growth were transplanted into 860 mL of mud contained in 32-oz. non-perforated plastic pots with a surface area of 86.59 cm^2 4 days prior to herbicide application. The paddy was created by filling the headspace of the pots with 2.5 to 3 cm of water. When required to ensure good germination and healthy plants, a fungicide treatment and/or other chemical or physical treatment was applied. The plants were grown for 4-22 days in a greenhouse with an approximate 14 hour (h) photoperiod which was maintained at about 29° C. during the day and about 26° C. during the night. Nutrients were added as Osmocote® (17:6:10, N:P:K+minor nutrients) at 2 g per cup. Water was added on a regular basis to maintain the paddy flood, and supplemental lighting was provided with overhead metal halide 1000-Watt lamps as necessary. The plants were employed for testing when they reached the first through fourth true leaf stage.
Treatments consisted of the acid or esters of 4-amino-3-chloro-5-fluoro-6-(4-chloro-2-fluoro-3-methoxy-phenyl)pyridine-2-carboxylic acid (compound A) each formulated as an SC (suspension concentrate) and various fungicidal components alone and in combination. Forms of compound A were applied on an acid equivalent basis.
(§12) Treatment requirements for each compound or fungicidal component were calculated based upon the rates being tested, the concentration of active ingredient or acid equivalent in the formulation, an application volume of 2 mL per component per pot, and an application area of 86.59 cm^2 per pot.
For formulated compounds, a measured amount was placed in an individual 100 or 200 mL glass vial and was dissolved in a volume of 1.25% (v/v) Agri-Dex® crop oil concentrate to obtain application solutions.
For technical grade compounds, a weighed amount was placed in an individual 100 to 200 mL glass vial and dissolved in a volume of acetone to obtain concentrated stock solutions.
Applications were made by injecting with a pipetter appropriate amounts of the application solutions, individually and sequentially, into the aqueous layer of the paddy. Control plants were treated in the same manner with the solvent blank. Applications were made so that all treated plant material received the same concentrations of acetone and crop oil concentrate.
The treated plants and control plants were placed in a greenhouse as described above and water was added as needed to maintain a paddy flood. After approximately 3 weeks the condition of the test plants as compared with that of the untreated plants was determined visually and scored on a scale of 0 to 100 percent where 0 corresponds to no injury or growth inhibition and 100 corresponds to complete kill.
as §9, §10

FIMMI = assay: as above; assay type: in vivo, Fimbristylis miliacea (L.) Vahl (globe fringerush); conditions: Tricyclazole 200 g ai/ha
Protocol: as §11, with “stage. […]” for “stage.”
as §12
(§13) For formulated compounds, a measured amount was placed in an individual 100 or 200 mL glass vial and was dissolved in a volume of 1.25% (v/v) Agri-Dex® crop oil concentrate to obtain application solutions. […]
(§14) The treated plants and control plants were placed in a greenhouse as described above and water was added as needed to maintain a paddy flood. After approximately 3 weeks the condition of the test plants as compared with that of the untreated plants was determined visually and scored on a scale of 0 to 100 percent where 0 corresponds to no injury or growth inhibition and 100 corresponds to complete kill. […]

LEFCH [2] = assay: as above; assay type: in vivo, Leptochloa chinensis (L.) Nees (Chinese sprangletop)
Protocol: as §11, with “stage. […]” for “stage.”
as §12, §13, §14

ECHCG = assay: Postemergence foliar-applied weed control, direct-seeded rice (greenhouse); assay type: in vivo, Echinochloa crus-galli (L.) P. Beauv. (barnyardgrass)
Protocol: as §1, §2, §3, §4, §5, §6, §8, §9, §10

[3] = r9-11 ester 8/16/32 g ae/ha alone, r12-14 kasugamycin 17.5/35/70 g ai/ha alone, r15-23 ester 8/16/32 at each of 17.5, 35, 70
[4] = r9-11 acid 5.3/10.6/21.2 g ae/ha alone, r12 difenoconazole 200 g ai/ha alone, r13-15 acid 5.3/10.6/21.2 + 200
[5] = r10-12 ester 4.38/8.75/17.5 g ae/ha alone, r13 difenoconazole 200 g ai/ha alone, r14-16 ester 4.38/8.75/17.5 + 200

CC1OC(OC2C(O)C(O)C(O)C(O)C2O)C(N)CC1NC(=N)C(=O)O.Cl [Kasugamycin, 1L-1,3,4/2,5,6-1-deoxy-2,3,4,5,6,-pentahydroxycyclohexyl 2-amino-2,3,4,6-tetradeoxy-4-(α-iminoglycino)-α-D-arabino-hexopyranoside hydrochloride hydrate, reference compound]
0%: Visual Weed Control (%)—21 DAA CYPES Obs (CYPES) | Visual Weed Control (%)—21 DAA CYPIR Obs (CYPIR) | Visual Weed Control (%)—21 DAA DIGSA Obs (DIGSA; [3]) | Visual Weed Control (%)—21 DAA ECHOR Obs (ECHOR; [3]) | Visual Weed Control (%)—21 DAA IPOHE Obs (IPOHE; [3]) | Visual Weed Control (%)—21 DAA LEFCH Obs (LEFCH [1]; [3])

Cc1cccc2sc3nncn3c12 [Tricyclazole, 5-methyl-1,2,4-triazolo[3,4-b][1,3]benzothiazole, reference compound]
0%: Visual Weed Control (%) - 22 DAA CYPRO Obs (CYPRO; Tricyclazole 200 g ai/ha, 22 DAA) | Visual Weed Control (%) - 19 DAA CYPRO Obs (CYPRO; Tricyclazole 375 g ai/ha) | Visual Weed Control (%) - 19 DAA CYPRO Obs (CYPRO; Tricyclazole 750 g ai/ha) | Visual Weed Control (%) - 22 DAA FIMMI Obs (FIMMI) | Visual Weed Control (%) - 19 DAA LEFCH Obs (LEFCH [2]; Tricyclazole 187.5 g ai/ha) | Visual Weed Control (%) - 19 DAA LEFCH Obs (LEFCH [2]; Tricyclazole 750 g ai/ha)

CC1COC(Cn2cncn2)(c2ccc(Oc3ccc(Cl)cc3)cc2Cl)O1 (mixture of isomers) [Difenoconazole, cis, trans-3-chloro-4-[4-methyl-2-(1H-1,2,4-triazol-1-ylmethyl)-1,3,dioxolan-2-yl]phenyl 4-chlorophenyl ether, reference compound]
0%: Visual Weed Control (%)—21 DAA DIGSA Obs (DIGSA; [4]) | Visual Weed Control (%) - 22 DAA DIGSA Obs (DIGSA; 22 DAA, r22-24 ester 8/16/32 g ae/ha alone, r25-27 difenoconazole 50/100/200 g ai/ha alone, r28-36 ester 8/16/32 at each of 50, 100, 200) | Visual Weed Control (%)—21 DAA ECHCG Obs (ECHCG; [4]) | Visual Weed Control (%) - 21 DAA ECHCG Obs (ECHCG; r58-60 ester 8/16/32 g ae/ha alone, r61-63 difenoconazole 50/100/200 g ai/ha alone, r64-72 ester 8/16/32 at each of 50, 100, 200) | Visual Weed Control (%) - 21 DAA ECHOR Obs (ECHOR; r78-80 ester 8/16/32 g ae/ha alone, r81-83 difenoconazole 50/100/200 g ai/ha alone, r84-92 ester 8/16/32 at each of 50, 100, 200) | Visual Weed Control (%) - 21 DAA IPOHE Obs (IPOHE; [5]) | Visual Weed Control (%)—21 DAA LEFCH Obs (LEFCH [1]; [4]) | Visual Weed Control (%) - 21 DAA LEFCH Obs (LEFCH [1]; [5]) | Visual Weed Control (%) - 21 DAA LEFCH Obs (LEFCH [1]; r42-43 ester 16/32 g ae/ha alone, r44-46 difenoconazole 50/100/200 g ai/ha alone, r47-52 ester 16/32 at each of 50, 100, 200)
